Results from BindingDB's records for doi:10.1016/j.bmcl.2011.09.060 (Second Military Medical University, 2011).

Molecular target: Acrosin (Homo sapiens, UniProt P10323)
Test: Inhibition of acrosin activity in human spermatozoa using N-alpha-benzoyl-DL-arginine para-nitroanilide-HCI as a substrate after 3 hrs by spectrophotometric analysis

Acrosin, sequence (P10323 20-42 limits assumed): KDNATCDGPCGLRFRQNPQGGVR
Acrosin, sequence (P10323 43-343 limits assumed): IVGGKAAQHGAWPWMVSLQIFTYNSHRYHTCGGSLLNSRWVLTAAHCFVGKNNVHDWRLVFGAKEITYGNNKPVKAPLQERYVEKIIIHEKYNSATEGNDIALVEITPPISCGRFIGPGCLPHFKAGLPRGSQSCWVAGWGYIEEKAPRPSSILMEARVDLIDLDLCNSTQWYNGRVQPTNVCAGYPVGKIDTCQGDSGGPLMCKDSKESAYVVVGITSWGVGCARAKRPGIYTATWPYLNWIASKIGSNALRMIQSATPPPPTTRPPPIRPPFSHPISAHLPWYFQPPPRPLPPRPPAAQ

Structure (SMILES)	IC50 [mM]
CCCOC(=O)C1CCN(CC(=O)Nc2ccc(S(=O)(=O)N=C(N)N)cc2)CC1	3.31
CCOC(=O)C1CCN(CC(=O)Nc2ccc(S(=O)(=O)N=C(N)N)cc2)CC1	2.99
COC(=O)C1CCN(CC(=O)Nc2ccc(S(=O)(=O)NC(=N)N)cc2)CC1	9.3
CC1CCN(CC(=O)Nc2ccc(S(=O)(=O)NC(=N)N)cc2)CC1	4.98
CCCCC(=O)Nc1ccc(S(=O)(=O)NC(=N)N)cc1	1.58
CCCC(=O)Nc1ccc(S(=O)(=O)NC(=N)N)cc1	9.58
CCOc1ccc(C(=O)Nc2ccc(S(=O)(=O)NC(=N)N)cc2)cc1	0.13
N=C(N)NS(=O)(=O)c1ccc(NC(=O)c2cccc(C(F)(F)F)c2)cc1	7.05
Cc1cc(C)c(C(=O)Nc2ccc(S(=O)(=O)NC(=N)N)cc2)c(C)c1	2.45
N=C(N)NS(=O)(=O)c1ccc(NC(=O)c2ccc(CCl)cc2)cc1	3.84
N=C(N)NS(=O)(=O)c1ccc(NC(=O)c2c(F)cccc2F)cc1	7.18
N=C(N)NS(=O)(=O)c1ccc(NC(=O)c2ccc(F)cc2)cc1	7.11
N=C(N)NS(=O)(=O)c1ccc(NC(=O)c2ccccc2Br)cc1	7.63
N=C(N)NS(=O)(=O)c1ccc(NC(=O)c2ccc(Cl)cc2Cl)cc1	5.63
N=C(N)NS(=O)(=O)c1ccc(NC(=O)c2cccc(Cl)c2)cc1	7
N=C(N)NS(=O)(=O)c1ccc(NC(=O)c2ccccc2Cl)cc1	6.3
COc1ccc(C(=O)Nc2ccc(S(=O)(=O)NC(=N)N)cc2)cc1	2.21
CC(C)OC(=O)C1CCN(CC(=O)Nc2ccc(S(=O)(=O)NC(=N)N)cc2)CC1	2.35
CCCCOC(=O)C1CCN(CC(=O)Nc2ccc(S(=O)(=O)NC(=N)N)cc2)CC1	9.5
CC(C)CCOC(=O)C1CCN(CC(=O)Nc2ccc(S(=O)(=O)NC(=N)N)cc2)CC1	2.51
COC(=O)c1ccc(OC(=O)c2ccc(NC(=N)N)cc2)cc1	0.027

Results, then the compound that gave them:

IC50 [mM]	Structure (SMILES)
9.9	CC1CCCCN1CC(=O)Nc1ccc(S(=O)(=O)N=C(N)N)cc1 (stereo unspecified)
7.41	NC(N)=NS(=O)(=O)c1ccc(NC(=O)CN2CCCCC2)cc1
9	CCC(=O)Nc1ccc(S(=O)(=O)N=C(N)N)cc1
0.21	CCc1ccc(C(=O)Nc2ccc(S(=O)(=O)N=C(N)N)cc2)cc1
2.5	NC(N)=NS(=O)(=O)c1ccc(NC(=O)c2cc([N+](=O)[O-])cc([N+](=O)[O-])c2)cc1
3.8	NC(N)=NS(=O)(=O)c1ccc(NC(=O)c2ccc(Cl)c(Cl)c2)cc1
5.96	NC(N)=NS(=O)(=O)c1ccc(NC(=O)c2c(Cl)cccc2Cl)cc1
2.06	Cc1ccc(C(=O)Nc2ccc(S(=O)(=O)NC(=N)N)cc2)cc1
2.3	N=C(N)NS(=O)(=O)c1ccc(NC(=O)COc2ccccc2)cc1
9.3	Cc1ccccc1OCC(=O)Nc1ccc(S(=O)(=O)NC(=N)N)cc1
8.92	Cc1cccc(OCC(=O)Nc2ccc(S(=O)(=O)N=C(N)N)cc2)c1
8.98	Cc1ccc(OCC(=O)Nc2ccc(S(=O)(=O)N=C(N)N)cc2)cc1
9.35	N=C(N)NS(=O)(=O)c1ccc(NC(=O)COc2ccc(Cl)cc2)cc1
9.84	COc1ccc(OCC(=O)Nc2ccc(S(=O)(=O)N=C(N)N)cc2)cc1
4.2	N=C(N)NS(=O)(=O)c1ccc(NC(=O)COc2ccc([N+](=O)[O-])cc2)cc1
